# Reference: patent publication US8809270B2, “Method for reducing cardiovascular morbidity and mortality in prediaetic patients and patients with type 2 diabetes” (priority 2003, dated 2014)
# Tests used:
# [1] = system: individuals with IGT, IFG, or mild untreated type 2 diabetes; test: Study HOE901/1021: adverse events and hypoglycemia; type: in vivo, human
# Description: The study was conducted at three centers in the US. After screening tests, including fasting plasma glucose (FPG) and post prandial plasma glucose (PPG; two hours following a 75 g oral glucose load) for classification as IGT, IFG, diabetic, or normal glucose tolerance (NGT), and after satisfying other inclusion criteria including the ability to perform moderate exercise on a stationary bicycle, subjects were admitted to an inpatient study center. They were confined there for the next 15 days, during which time they were randomly assigned to receive either HOE901 once per day subcutaneously in the evening, or matching placebo (saline) injections in a 3:1 randomization (HOE901:placebo). Baseline assessments included a 5-point (before each meal, bedtime, and 3 AM) and 8-point (5-point plus readings 2 hours after each meal) blood glucose profile on separate days, and 15 minutes of exercise on a stationary bicycle at a level of exertion of “somewhat hard” on the Borg scale with blood glucose values monitored during and for 3 hours following the exercise. Each subject received a 25 kCal/kg diet while confined in the study center. Capillary whole blood glucose values were recorded on HemoCue devices. Episodes of hypoglycemia (blood glucose 50 mg/dL [2.8 mM] or symptoms with blood glucose 65 mg/dL [3.6 mM]) were recorded.
# Treatment-emergent adverse events (TEAEs) occurred in 10 subjects in the HOE901 group (16 events) vs. 2 in the placebo group (5 events). Each event occurred in only 1 individual except for headache, which occurred in 3 HOE901 subjects. Only 2 HOE901 subjects and 1 placebo subject had events that were considered by investigators as possibly related to study drug. The HOE901 events were 2 episodes of headache, and one of hypoglycemia. The two headaches occurred in subjects who had hypoglycemic events on the same days and at approximately the same time as the headaches. […] Subject 3011 (who reported dizziness as an adverse event during screening) was removed from the study by the sponsor prior to receiving any study drug dose because of hypoglycemia that occurred during screening.
# Only mild hypoglycemia occurred in 4 out of 16 subjects treated with HOE901 in this study. These hypoglycemic events generally occurred before lunch or supper, and resolved promptly with oral caloric intake. No episodes of hypoglycemia occurred in relation to exercise. Although the calorie-restricted diet subjects consumed during this study doubtless played a role in the occurrence of these events, the diet was typical in size for what is recommended to these frequently overweight individuals. […] Hypoglycemia can occur, but is manageable not related to exercise, and detectable with the aid of home glucose monitoring.
# [2] = system: type 2 diabetic population inadequately treated with oral drugs; test: Treat-to-Target study (HOE901/4002): lipid data; type: in vivo, human; set-up: Triglycerides % reduction from baseline / Triglycerides % reduction from baseline, LANTUS-AMARYL / Non-HDL Cholesterol Total % reduction from baseline / Non-HDL Cholesterol Total % reduction from baseline, LANTUS-AMARYL: concentration or dose not given beside the values; Triglycerides Baseline / Triglycerides Endpoint: unit not given beside the values; conditions: for Non-HDL Cholesterol Total % reduction from baseline, LANTUS-AMARYL / Non-HDL Cholesterol Total change at endpoint, LANTUS-AMARYL / Triglycerides % reduction from baseline, LANTUS-AMARYL / Triglycerides change at endpoint, LANTUS-AMARYL: LANTUS (4002 Study) minus AMARYL (two AMARYL studies)
# Description: As a consequence of the excellent glycemic control attained, which set the standard for glycemic control in future trials, the 4002 study results are especially useful as an assessment of Lantus's LANTUS (insulin glargine) effects on lipids.
substance,measurement,setting,value
insulin glargine [LANTUS],"Treatment-emergent adverse events (TEAEs), events",[1]; in vivo,16 events
same,"Treatment-emergent adverse events (TEAEs), subjects",[1]; in vivo,10 subjects
same,headache,[1]; in vivo,3 subjects
same,safety and tolerability,[1]; in vivo,safe and well tolerated
same,serious adverse events,[1]; in vivo,no serious adverse events
same,subjects with events considered by investigators as possibly related to study drug,[1]; in vivo,2 subjects
same,mild hypoglycemia,[1]; out of 16 subjects treated,4 subjects
same,HDL Baseline,[2]; TG baseline range 200-500,42
same,HDL Endpoint,[2]; TG baseline range 200-500,41
same,Non-HDL Cholesterol Total % reduction from baseline,[2]; TG baseline range 200-500,7%
same,Non-HDL Cholesterol Total Baseline,[2]; TG baseline range 200-500,167
same,Non-HDL Cholesterol Total Endpoint,[2]; TG baseline range 200-500,155
same,Triglycerides % reduction from baseline,[2]; TG baseline range 200-500,25%
same,Triglycerides Baseline,[2]; TG baseline range 200-500,288
same,Triglycerides Endpoint,[2]; TG baseline range 200-500,232
same,"Non-HDL Cholesterol Total % reduction from baseline, LANTUS-AMARYL",[2]; TG baseline range 200-500,4%
same,"Non-HDL Cholesterol Total change at endpoint, LANTUS-AMARYL",[2]; TG baseline range 200-500,5.8
same,"Triglycerides % reduction from baseline, LANTUS-AMARYL",[2]; TG baseline range 200-500,13%
same,"Triglycerides change at endpoint, LANTUS-AMARYL",[2]; TG baseline range 200-500,21.7
same,HDL Baseline,[2]; TG baseline range 300-500,40
same,HDL Endpoint,[2]; TG baseline range 300-500,40
same,Non-HDL Cholesterol Total % reduction from baseline,[2]; TG baseline range 300-500,15%
same,Non-HDL Cholesterol Total Baseline,[2]; TG baseline range 300-500,180
same,Non-HDL Cholesterol Total Endpoint,[2]; TG baseline range 300-500,152
same,Triglycerides % reduction from baseline,[2]; TG baseline range 300-500,34%
same,Triglycerides Baseline,[2]; TG baseline range 300-500,362
same,Triglycerides Endpoint,[2]; TG baseline range 300-500,240
same,"Non-HDL Cholesterol Total % reduction from baseline, LANTUS-AMARYL",[2]; TG baseline range 300-500,12%
same,"Non-HDL Cholesterol Total change at endpoint, LANTUS-AMARYL",[2]; TG baseline range 300-500,21.9
same,"Triglycerides % reduction from baseline, LANTUS-AMARYL",[2]; TG baseline range 300-500,16%
same,"Triglycerides change at endpoint, LANTUS-AMARYL",[2]; TG baseline range 300-500,52.5
same,HDL Baseline,[2]; TG baseline range 300-1000,37
same,HDL Endpoint,[2]; TG baseline range 300-1000,38
same,Non-HDL Cholesterol Total % reduction from baseline,[2]; TG baseline range 300-1000,10%
same,Non-HDL Cholesterol Total Baseline,[2]; TG baseline range 300-1000,181
same,Non-HDL Cholesterol Total Endpoint,[2]; TG baseline range 300-1000,163
same,Triglycerides % reduction from baseline,[2]; TG baseline range 300-1000,36%
same,Triglycerides Baseline,[2]; TG baseline range 300-1000,470
same,Triglycerides Endpoint,[2]; TG baseline range 300-1000,301
same,"Non-HDL Cholesterol Total % reduction from baseline, LANTUS-AMARYL",[2]; TG baseline range 300-1000,5%
same,"Non-HDL Cholesterol Total change at endpoint, LANTUS-AMARYL",[2]; TG baseline range 300-1000,8.6
same,"Triglycerides % reduction from baseline, LANTUS-AMARYL",[2]; TG baseline range 300-1000,13%
same,"Triglycerides change at endpoint, LANTUS-AMARYL",[2]; TG baseline range 300-1000,63.6
same,HDL Baseline,[2]; TG baseline range 500-1000,33
same,HDL Endpoint,[2]; TG baseline range 500-1000,36
same,Non-HDL Cholesterol Total % reduction from baseline,[2]; TG baseline range 500-1000,8%
same,Non-HDL Cholesterol Total Baseline,[2]; TG baseline range 500-1000,186
same,Non-HDL Cholesterol Total Endpoint,[2]; TG baseline range 500-1000,171
same,Triglycerides % reduction from baseline,[2]; TG baseline range 500-1000,38%
same,Triglycerides Baseline,[2]; TG baseline range 500-1000,661
same,Triglycerides Endpoint,[2]; TG baseline range 500-1000,409
same,"Non-HDL Cholesterol Total % reduction from baseline, LANTUS-AMARYL",[2]; TG baseline range 500-1000,−2%
same,"Non-HDL Cholesterol Total change at endpoint, LANTUS-AMARYL",[2]; TG baseline range 500-1000,−9.0
same,"Triglycerides % reduction from baseline, LANTUS-AMARYL",[2]; TG baseline range 500-1000,5%
same,"Triglycerides change at endpoint, LANTUS-AMARYL",[2]; TG baseline range 500-1000,34.4
same,LDL Baseline,[2]; TG baseline range All,113
same,LDL Endpoint,[2]; TG baseline range All,110
same,reduction in fasting TG levels,[2]; all patients,24%
same,reduction in fasting TG levels,[2]; elevations of 500 mg/dL or more,38%
same,reduction in fasting TG levels,[2]; fasting TG in the 300-499 mg/dL range,34%
